The record followed here is the supplement of paper PMC11208160.

This series is described as follows: recombinant UMI read abundance after kanamycin selection (control-corrected) (log10(CPM+1)); higher = more efficient recombination; extreme values may be limits of the assay; sequences stand for … in AGTGCAGAGAAAATCGGCCAGTTTTCTCTGCCTGCAGTCCGCATGCCGTGGGACCCCTTGGGTTCTAACCTGTTGCCTAGATTTATGCAGCGGACTGCCTTTCTCCCAAAGTGATAAACCGG…AGGTTGGTTTCACT; site = the 11-nt donor. Here is the method:
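Pooled E. coli donor-specificity screen for the IS621 bridge recombinase. Each library member carries a reprogrammed 11-nt donor and a full-length LE bridge RNA expressed in cis from the natural promoter, with a paired donor-binding loop (8-nt LDG + 4-nt RDG) and a target-binding loop fixed to T5. It is co-electroporated with a T5 target plasmid; recombinase is induced with 0.07 mM IPTG and recombinants are selected on kanamycin. UMIs are counted as CPM, averaged over two biological replicates and corrected by the unselected control. Molecule = full bridge RNA written as DNA, built from the T5 scaffold: LDG = donor specificity nt 1-8, RDG = reverse complement of nt 8-11.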
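Note: IS621 bridge recombinase in Escherichia coli cells against a fixed T5 target plasmid.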

Regarding “ACAGTATCATGGACCGGTTTTCCCGGTAATCCGTATTTGCA (site AGAGTGTCTTG)”, the “recombinant UMI read abundance (log10)” value was 1.6.

Consider “ACAGTATCATGGACCGGTTTTCCCGGTAATCCGTATTTGCA (site AGATTATCTTG)”, for which the “recombinant UMI read abundance (log10)” value came to 1.58.

Regarding “ACAGTATCATGGACCGGTTTTCCCGGTAATCCGTATTTGCA (site AGTGTATCTTG)”, the “recombinant UMI read abundance (log10)” value is 1.45.

As for “ACAGTATCATGGACCGGTTTTCCCGGTAATCCGTATTTGCA (site ATACTATCTTG)”, the “recombinant UMI read abundance (log10)” value stood at 1.12.

On to “ACAGTATCATGGACCGGTTTTCCCGGTAATCCGTATTTGCA (site ATAGCATCTTG)”, for which the “recombinant UMI read abundance (log10)” value was determined as 1.83.

Turning to “ACAGTATCATGGACCGGTTTTCCCGGTAATCCGTATTTGCA (site ATAGTAGCTTG)”, the “recombinant UMI read abundance (log10)” value stood at 0.354.

“ACAGTATCATGGACCGGTTTTCCCGGTAATCCGTATTTGCA (site ATAGTATCTCG)”: the “recombinant UMI read abundance (log10)” value was 0.0911.

Regarding “ACAGTATCATGGACCGGTTTTCCCGGTAATCCGTATTTGCA (site ATAGTATCTTA)”, the “recombinant UMI read abundance (log10)” value came out at 0.

As to “ACAGTATCATGGACCGGTTTTCCCGGTAATCCGTATTTGCA (site ATAGTATCTTG)”, the “recombinant UMI read abundance (log10)” value came to 2.04.

Consider “ACAGTATCATGGACCGGTTTTCCCGGTAATCCGTATTTGCA (site ATAGTTTCTTG)”, for which the “recombinant UMI read abundance (log10)” value is 0.0207.

As to “ACAGTATCATGGACCGGTTTTCCCGGTAATCCGTATTTGCA (site ATGGTATCTTG)”, the “recombinant UMI read abundance (log10)” value came to 1.7.

With “ACAGTATCATGGACCGGTTTTCCCGGTAATCCGTATTTGCA (site CCAGGATCTTG)”, the “recombinant UMI read abundance (log10)” value was 0.811.

Regarding “ACAGTATCATGGACCGGTTTTCCCGGTAATCCGTATTTGCA (site CCAGTACCTTG)”, the “recombinant UMI read abundance (log10)” value is 0.0123.

Turning to “ACAGTATCATGGACCGGTTTTCCCGGTAATCCGTATTTGCA (site CCAGTATCTGG)”, the “recombinant UMI read abundance (log10)” value amounted to 0.613.

As to “ACAGTATCATGGACCGGTTTTCCCGGTAATCCGTATTTGCA (site CCAGTATCTTG)”, the “recombinant UMI read abundance (log10)” value was 2.71.

Take “ACAGTATCATGGACCGGTTTTCCCGGTAATCCGTATTTGCA (site CCAGTATCTTT)”: the “recombinant UMI read abundance (log10)” value stood at 0.00394.

Take “ACAGTATCATGGACCGGTTTTCCCGGTAATCCGTATTTGCA (site CCAGTGTCTTG)”: the “recombinant UMI read abundance (log10)” value stood at 1.8.

Take “ACAGTATCATGGACCGGTTTTCCCGGTAATCCGTATTTGCA (site CCATTATCTTG)”: the “recombinant UMI read abundance (log10)” value came to 2.31.

Regarding “ACAGTATCATGGACCGGTTTTCCCGGTAATCCGTATTTGCA (site CCTGTATCTTG)”, the “recombinant UMI read abundance (log10)” value was 2.37.

“ACAGTATCATGGACCGGTTTTCCCGGTAATCCGTATTTGCA (site CGAGTATCTTG)”: the “recombinant UMI read abundance (log10)” value was found to be 1.36.

On to “ACAGTATCATGGACCGGTTTTCCCGGTAATCCGTATTTGCA (site GAAGTATCTTG)”, for which the “recombinant UMI read abundance (log10)” value was determined as 2.82.

Take “ACAGTATCATGGACCGGTTTTCCCGGTAATCCGTATTTGCA (site GCAATATCTTG)”: the “recombinant UMI read abundance (log10)” value was 1.63.

Turning to “ACAGTATCATGGACCGGTTTTCCCGGTAATCCGTATTTGCA (site GCAGAATCTTG)”, the “recombinant UMI read abundance (log10)” value was 1.47.

As for “ACAGTATCATGGACCGGTTTTCCCGGTAATCCGTATTTGCA (site GCAGTAACTTG)”, the “recombinant UMI read abundance (log10)” value stood at 0.

Regarding “ACAGTATCATGGACCGGTTTTCCCGGTAATCCGTATTTGCA (site GCAGTATCTAG)”, the “recombinant UMI read abundance (log10)” value was 0.0509.

For “ACAGTATCATGGACCGGTTTTCCCGGTAATCCGTATTTGCA (site GCAGTATCTTC)”, the “recombinant UMI read abundance (log10)” value amounted to 0.00944.

Consider “ACAGTATCATGGACCGGTTTTCCCGGTAATCCGTATTTGCA (site GCAGTATCTTG)”, for which the “recombinant UMI read abundance (log10)” value came out at 2.41.

For the sequence “ACAGTATCATGGACCGGTTTTCCCGGTAATCCGTATTTGCA (site GCAGTCTCTTG)”, the “recombinant UMI read abundance (log10)” value worked out at 0.292.

“ACAGTATCATGGACCGGTTTTCCCGGTAATCCGTATTTGCA (site GCCGTATCTTG)”: the “recombinant UMI read abundance (log10)” value stood at 1.88.

On to “ACAGTATCATGGACCGGTTTTCCCGGTAATCCGTATTTGCA (site TCACTATCTTG)”, for which the “recombinant UMI read abundance (log10)” value came to 0.822.

Turning to “ACAGTATCATGGACCGGTTTTCCCGGTAATCCGTATTTGCA (site TCAGCATCTTG)”, the “recombinant UMI read abundance (log10)” value came out at 2.37.

Consider “ACAGTATCATGGACCGGTTTTCCCGGTAATCCGTATTTGCA (site TCAGTAGCTTG)”, for which the “recombinant UMI read abundance (log10)” value was 0.0987.

For “ACAGTATCATGGACCGGTTTTCCCGGTAATCCGTATTTGCA (site TCAGTATCTCG)”, the “recombinant UMI read abundance (log10)” value was found to be 0.00474.

For “ACAGTATCATGGACCGGTTTTCCCGGTAATCCGTATTTGCA (site TCAGTATCTTA)”, the “recombinant UMI read abundance (log10)” value turned out to be 0.

As to “ACAGTATCATGGACCGGTTTTCCCGGTAATCCGTATTTGCA (site TCAGTATCTTG)”, the “recombinant UMI read abundance (log10)” value stood at 2.54.

For the sequence “ACAGTATCATGGACCGGTTTTCCCGGTAATCCGTATTTGCA (site TCAGTTTCTTG)”, the “recombinant UMI read abundance (log10)” value was determined as 1.26.

In the case of “ACAGTATCATGGACCGGTTTTCCCGGTAATCCGTATTTGCA (site TCGGTATCTTG)”, the “recombinant UMI read abundance (log10)” value came to 0.0345.

For the sequence “ACAGTATCATGGACCGGTTTTCCCGGTAATCCGTATTTGCA (site TTAGTATCTTG)”, the “recombinant UMI read abundance (log10)” value was determined as 2.66.

For “ACAGTATCATGGACCGGTTTTCCCGGTAATCCGTATTTGGT (site ACAGTATCTAC)”, the “recombinant UMI read abundance (log10)” value worked out at 2.61.

For the sequence “ACAGTATCATGGACCGGTTTTCCCGGTAATCCGTATTTGGT (site ACAGTATCTTG)”, the “recombinant UMI read abundance (log10)” value was found to be 0.731.

On to “ACAGTCACATGGACCGGTTTTCCCGGTAATCCGTATTTGCA (site ACAGTATCTTG)”, for which the “recombinant UMI read abundance (log10)” value amounted to 1.84.

“ACAGTCACATGGACCGGTTTTCCCGGTAATCCGTATTTGCA (site ACAGTCACTTG)”: the “recombinant UMI read abundance (log10)” value is 2.58.

For the sequence “ACAGTCTCATGGACCGGTTTTCCCGGTAATCCGTATTTGCA (site ACAGTATCTTG)”, the “recombinant UMI read abundance (log10)” value is 2.26.

For “ACAGTCTCATGGACCGGTTTTCCCGGTAATCCGTATTTGCA (site ACAGTCTCTTG)”, the “recombinant UMI read abundance (log10)” value is 3.22.

With “ACAGTCTCATGGACCGGTTTTCCCGGTAATCCGTATTTGCA (site ACAGTGTCTTG)”, the “recombinant UMI read abundance (log10)” value turned out to be 2.28.

With “ACAGTCTCATGGACCGGTTTTCCCGGTAATCCGTATTTGCA (site ACAGTTTCTTG)”, the “recombinant UMI read abundance (log10)” value stood at 0.155.

As to “ACAGTCTCATGGACCGGTTTTCCCGGTAATCCGTATTTGCT (site ACAGTATCTTG)”, the “recombinant UMI read abundance (log10)” value is 0.

“ACAGTCTCATGGACCGGTTTTCCCGGTAATCCGTATTTGCT (site ACAGTCTCTAG)”: the “recombinant UMI read abundance (log10)” value came out at 2.94.

For the sequence “ACAGTGCCATGGACCGGTTTTCCCGGTAATCCGTATTTGAG (site ACAGTGCCTCT)”, the “recombinant UMI read abundance (log10)” value was 0.285.

For the sequence “ACAGTGCCATGGACCGGTTTTCCCGGTAATCCGTATTTGCA (site ACAGTATCTTG)”, the “recombinant UMI read abundance (log10)” value stood at 0.852.

Regarding “ACAGTGCCATGGACCGGTTTTCCCGGTAATCCGTATTTGCA (site ACAGTGCCTTG)”, the “recombinant UMI read abundance (log10)” value is 1.38.

On to “ACAGTGTCATGGACCGGTTTTCCCGGTAATCCGTATTTGCA (site ACAGTATCTTG)”, for which the “recombinant UMI read abundance (log10)” value amounted to 3.35.

With “ACAGTGTCATGGACCGGTTTTCCCGGTAATCCGTATTTGCA (site ACAGTCTCTTG)”, the “recombinant UMI read abundance (log10)” value came to 2.

For the sequence “ACAGTGTCATGGACCGGTTTTCCCGGTAATCCGTATTTGCA (site ACAGTGTCTTG)”, the “recombinant UMI read abundance (log10)” value came out at 3.29.

Turning to “ACAGTGTCATGGACCGGTTTTCCCGGTAATCCGTATTTGCA (site ACAGTTTCTTG)”, the “recombinant UMI read abundance (log10)” value is 0.818.

Take “ACAGTTTCATGGACCGGTTTTCCCGGTAATCCGTATTTGCG (site ACAGTATCTTG)”: the “recombinant UMI read abundance (log10)” value was found to be 0.

In the case of “ACAGTTTCATGGACCGGTTTTCCCGGTAATCCGTATTTGCG (site ACAGTTTCTCG)”, the “recombinant UMI read abundance (log10)” value was found to be 2.64.

Consider “ACATACACATGGACCGGTTTTCCCGGTAATCCGTATTTGAG (site ACATACACTCT)”, for which the “recombinant UMI read abundance (log10)” value turned out to be 1.79.

Turning to “ACATACTCATGGACCGGTTTTCCCGGTAATCCGTATTTGCA (site ACATACTCTTG)”, the “recombinant UMI read abundance (log10)” value was determined as 2.8.

Turning to “ACATACTCATGGACCGGTTTTCCCGGTAATCCGTATTTGCA (site CCATACTCTTG)”, the “recombinant UMI read abundance (log10)” value is 2.69.

“ACATACTCATGGACCGGTTTTCCCGGTAATCCGTATTTGCA (site GCATACTCTTG)”: the “recombinant UMI read abundance (log10)” value was 2.66.

Regarding “ACATACTCATGGACCGGTTTTCCCGGTAATCCGTATTTGCA (site TCATACTCTTG)”, the “recombinant UMI read abundance (log10)” value is 2.8.

In the case of “ACATCTACATGGACCGGTTTTCCCGGTAATCCGTATTTGTC (site ACATCTACTAA)”, the “recombinant UMI read abundance (log10)” value was 0.0236.

With “ACATCTACATGGACCGGTTTTCCCGGTAATCCGTATTTGTC (site ACATCTACTCA)”, the “recombinant UMI read abundance (log10)” value was found to be 0.0109.

For “ACATCTACATGGACCGGTTTTCCCGGTAATCCGTATTTGTC (site ACATCTACTGA)”, the “recombinant UMI read abundance (log10)” value is 0.
